We go through 26 compounds from patent US10196390B2, “TYK2 inhibitors and uses thereof” (Nimbus Lakshmi, Inc., priority 2014, dated 2019).

The target in this experiment is JAK2 (Homo sapiens (Human), UniProt O60674). Description: JAK2 activity inhibition assay (radioactive kinase assay / Caliper assay). The class given is biochemical. Conditions: read-out: JAK2 Ki. As for the experimental part: The caliper machine employs an off chip mobility shift assay to detect phosphorylated peptide substrates from kinase assays, using microfluidics technology. […] Compounds are serially diluted in DMSO then further diluted in assay buffer (25 mM HEPES, pH 7.5, 0.01% Brij-35, 0.01% Triton, 0.5 mM EGTA). 5 ul of diluted compound was added into wells first, then 10 ul of enzyme mix was added into wells, followed by 10 uL of substrate mix (peptide and ATP in 10 mM MgCl2) to start reaction. Reaction was incubated at 28° C. for 25 min and then added 25 ul stop buffer (100 mM HEPES, 0.015% Brij-35, 50 mM EDTA), followed by reading with Caliper.
Sequence of JAK2 (O60674 whole entry): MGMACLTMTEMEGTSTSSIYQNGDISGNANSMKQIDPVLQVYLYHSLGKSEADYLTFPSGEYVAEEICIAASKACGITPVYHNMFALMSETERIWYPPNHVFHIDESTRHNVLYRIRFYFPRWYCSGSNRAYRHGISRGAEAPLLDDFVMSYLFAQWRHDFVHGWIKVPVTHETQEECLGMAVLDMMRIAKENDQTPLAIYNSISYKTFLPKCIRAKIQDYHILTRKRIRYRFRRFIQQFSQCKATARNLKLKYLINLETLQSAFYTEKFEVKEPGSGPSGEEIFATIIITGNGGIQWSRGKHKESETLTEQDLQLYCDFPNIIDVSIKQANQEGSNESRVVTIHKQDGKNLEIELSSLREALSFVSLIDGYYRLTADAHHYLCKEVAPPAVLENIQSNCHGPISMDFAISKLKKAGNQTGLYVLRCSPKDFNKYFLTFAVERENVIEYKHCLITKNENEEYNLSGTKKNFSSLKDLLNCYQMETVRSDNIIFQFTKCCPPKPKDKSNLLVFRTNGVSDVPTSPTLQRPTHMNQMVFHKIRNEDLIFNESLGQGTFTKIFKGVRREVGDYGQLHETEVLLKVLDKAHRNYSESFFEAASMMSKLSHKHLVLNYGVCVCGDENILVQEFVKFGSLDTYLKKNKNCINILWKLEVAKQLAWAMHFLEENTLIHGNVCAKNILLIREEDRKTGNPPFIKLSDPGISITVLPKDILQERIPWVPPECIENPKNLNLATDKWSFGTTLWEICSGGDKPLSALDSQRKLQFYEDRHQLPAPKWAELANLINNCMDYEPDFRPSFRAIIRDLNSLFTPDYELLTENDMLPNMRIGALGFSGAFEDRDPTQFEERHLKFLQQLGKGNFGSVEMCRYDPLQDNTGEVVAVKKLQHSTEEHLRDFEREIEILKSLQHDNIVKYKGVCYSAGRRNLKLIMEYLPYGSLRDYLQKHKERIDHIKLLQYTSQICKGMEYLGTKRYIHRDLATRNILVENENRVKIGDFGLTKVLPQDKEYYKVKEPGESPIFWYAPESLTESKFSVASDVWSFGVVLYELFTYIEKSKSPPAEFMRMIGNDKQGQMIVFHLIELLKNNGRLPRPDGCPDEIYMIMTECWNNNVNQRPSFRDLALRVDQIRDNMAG
As for `O=C(Cc1ccc(Nc2nc(-c3c(F)cccc3F)nc3c2C(=O)NC3)cc1)NC1CNC1` [Compound I-12, N-(azetidin-3-yl)-2-(4-((2-(2,6-difluorophenyl)-5-oxo-6,7-dihydro-5H-pyrrolo[3,4-d]pyrimidin-4-yl)amino)phenyl)acetamide], the Ki was in the range of 0.1 to 1 µM.

With `COCCNC(=O)c1ccc(Nc2cc(-c3c(F)cccc3F)nc3c2C(=O)NC3)nc1` [Compound I-141, 6-((2-(2,6-difluorophenyl)-5-oxo-6,7-dihydro-5H-pyrrolo[3,4-b]pyridin-4-yl)amino)-N-(2-methoxyethyl)nicotinamide], the Ki was in the range of 0.01 to 0.1 µM. As for `CCNC(=O)c1ccc(Nc2cc(-c3c(F)cccc3Cl)nc3c2C(=O)NC3)nc1` [Compound I-146, 6-((2-(2-chloro-6-fluorophenyl)-5-oxo-6,7-dihydro-5H-pyrrolo[3,4-b]pyridin-4-yl)amino)-N-ethylnicotinamide], the inhibition constant (Ki) is 0.01 to 0.1 µM. For `CCC1(c2ccc(Nc3nc(-c4c(F)cccc4F)nc4c3C(=O)NC4)cc2)CCNC1=O` (centres unmarked) [Compound I-175, 2-(2,6-difluorophenyl)-4-((4-(3-ethyl-2-oxopyrrolidin-3-yl)phenyl)amino)-6,7-dihydro-5H-pyrrolo[3,4-d]pyrimidin-5-one], the Ki was 0.01 to 0.1 µM.

For `CC[C@]1(c2ccc(Nc3nc(-c4c(F)cccc4F)nc4c3C(=O)NC4)cc2)CCNC1=O` [Compound I-177, (R)-2-(2,6-difluorophenyl)-4-((4-(3-ethyl-2-oxopyrrolidin-3-yl)phenyl)amino)-6,7-dihydro-5H-pyrrolo[3,4-d]pyrimidin-5-one], the Ki fell in the range of 0.01 to 0.1 µM. Regarding `COC(=O)C(C)c1ccc(Nc2nc(-c3c(F)cccc3F)nc3c2C(=O)NC3)cc1` (centres unmarked) [Compound I-188, methyl 2-(4-((2-(2,6-difluorophenyl)-5-oxo-6,7-dihydro-5H-pyrrolo[3,4-d]pyrimidin-4-yl)amino)phenyl)propanoate], the inhibition constant (Ki) lay in the range of 0.01 to 0.1 µM. With `C[C@@H](C(=O)O)c1ccc(Nc2nc(-c3c(F)cccc3F)nc3c2C(=O)NC3)cc1` [Compound I-190, (R)-2-(4-((2-(2,6-difluorophenyl)-5-oxo-6,7-dihydro-5H-pyrrolo-[3,4-d]pyrimidin-4-yl)amino)phenyl)propanoic Acid] the figure was 0.1 to 1 µM. Take `C[C@H](C(=O)O)c1ccc(Nc2nc(-c3c(F)cccc3F)nc3c2C(=O)NC3)cc1` [Compound I-191, (S)-2-(4-((2-(2,6-difluorophenyl)-5-oxo-6,7-dihydro-5H-pyrrolo-[3,4-d]pyrimidin-4-yl)amino)phenyl)propanoic Acid]: the Ki is 0.1 to 1 µM. With `CN1CCN(C)C(C)(c2ccc(Nc3nc(-c4c(F)cccc4F)nc4c3C(=O)NC4)cc2)C1=O` (centres unmarked) [Compound I-209, 2-(2,6-difluorophenyl)-4-((4-(1,2,4-trimethyl-3-oxopiperazin-2-yl)phenyl)amino)-6,7-dihydro-5H-pyrrolo[3,4-d]pyrimidin-5-one] the figure was 0.01 to 0.1 µM; with `CN1CCN(C)[C@](C)(c2ccc(Nc3nc(-c4c(F)cccc4F)nc4c3C(=O)NC4)cc2)C1=O` [Compound I-210, (R)-2-(2,6-difluorophenyl)-4-((4-(1,2,4-trimethyl-3-oxopiperazin-2-yl)phenyl)amino)-6,7-dihydro-5H-pyrrolo[3,4-d]pyrimidin-5-one], 0.01 to 0.1 µM; with `O=C1NCc2nc(-c3c(F)cccc3F)cc(Nc3ccc(C(=O)N4CCOCC4)cn3)c21` [Compound I-212, 2-(2,6-difluorophenyl)-4-((5-(morpholine-4-carbonyl)pyridin-2-yl)amino)-6,7-dihydro-5H-pyrrolo[3,4-b]pyridin-5-one], 0.01 to 0.1 µM. Consider `O=C1NCc2nc(-c3c(F)cccc3F)cc(Nc3ccc(F)cc3)c21` [Compound I-235, 2-(2,6-difluorophenyl)-4-((4-fluorophenyl)amino)-6,7-dihydro-5H-pyrrolo[3,4-b]pyridin-5-one], for which the Ki lay in the range of 0.1 to 1 µM. Regarding `COc1ccc(Nc2cc(-c3c(F)cccc3F)nc3c2C(=O)NC3C)nc1` (centres unmarked) [Compound I-239, 2-(2,6-difluorophenyl)-4-((5-methoxypyridin-2-yl)amino)-7-methyl-6,7-dihydro-5H-pyrrolo[3,4-b]pyridin-5-one], the Ki lay within 0.1 to 1 µM. To `CC1COCCN1c1ccc(Nc2cc(-c3c(F)cccc3F)nc3c2C(=O)NC3)nc1` (centres unmarked) [Compound I-244, 2-(2,6-difluorophenyl)-4-((5-(3-methylmorpholino)pyridin-2-yl)amino)-6,7-dihydro-5H-pyrrolo[3,4-b]pyridin-5-one] belongs 0.01 to 0.1 µM; to `O=C1NCc2nc(-c3c(F)cccc3F)cc(Nc3ccc(C4=CCOCC4)cn3)c21` [Compound I-249, 2-(2,6-difluorophenyl)-4-((5-(3,6-dihydro-2H-pyran-4-yl)pyridin-2-yl)amino)-6,7-dihydro-5H-pyrrolo[3,4-b]pyridin-5-one], 0.01 to 0.1 µM; to `O=C1NCc2nc(-c3c(F)cccc3F)cc(Nc3ccc(C4(O)CCOCC4)cn3)c21` [Compound I-251, 2-(2,6-difluorophenyl)-4-((5-(4-hydroxytetrahydro-2H-pyran-4-yl)pyridin-2-yl)amino)-6,7-dihydro-5H-pyrrolo[3,4-b]pyridin-5-one], 0.01 to 0.1 µM. Consider `CC1(C)CCN(c2ccc(Nc3cc(-c4c(F)cccc4F)nc4c3C(=O)NC4)nc2)CC1` [Compound I-252, 2-(2,6-difluorophenyl)-4-((5-(4,4-dimethylpiperidin-1-yl)pyridin-2-yl)amino)-6,7-dihydro-5H-pyrrolo[3,4-b]pyridin-5-one], for which the Ki lay within 0.1 to 1 µM. Consider `O=C1NCc2nc(-c3c(F)cccc3F)c(F)c(Nc3ccc(N4CCOCC4)cn3)c21` [Compound I-254, 2-(2,6-difluorophenyl)-3-fluoro-4-((5-morpholinopyridin-2-yl)amino)-6,7-dihydro-5H-pyrrolo[3,4-b]pyridin-5-one], for which the Ki is 0.01 to 0.1 µM.

`CC1(c2ccc(Nc3nc(-c4c(F)cccc4F)nc4c3C(=O)NC4)cc2)COC1` [Compound I-255, 2-(2,6-difluorophenyl)-4-((4-(3-methyloxetan-3-yl)phenyl)-amino)-6,7-dihydro-5H-pyrrolo[3,4-d]pyrimidin-5-one]: the Ki is 0.01 to 0.1 µM. With `C[C@@H]1CCC[C@H](C)N1c1ccc(Nc2cc(-c3c(F)cccc3F)nc3c2C(=O)NC3)nc1` [Compound I-261, 2-(2,6-difluorophenyl)-4-((5-((2R,6S)-2,6-dimethylpiperidin-1-yl)pyridin-2-yl)amino)-6,7-dihydro-5H-pyrrolo[3,4-b]pyridin-5-one], the inhibition constant Ki lay within 0.01 to 0.1 µM. To `CC1(C)CN(c2ccc(Nc3cc(-c4c(F)cccc4F)nc4c3C(=O)NC4)nc2)CC[C@@H]1O` [Compound I-267, (S)-2-(2,6-difluorophenyl)-4-((5-(4-hydroxy-3,3-dimethylpiperidin-1-yl)pyridin-2-yl)amino)-6,7-dihydro-5H-pyrrolo[3,4-b]pyridin-5-one] belongs 0.01 to 0.1 µM. To `O=C1NCc2nc(-c3c(F)cccc3F)cc(Nc3ccc(N4CCCC(O)C4)cn3)c21` (centres unmarked) [Compound I-269, 2-(2,6-difluorophenyl)-4-((5-(3-hydroxypiperidin-1-yl)pyridin-2-yl)amino)-6,7-dihydro-5H-pyrrolo[3,4-b]pyridin-5-one] belongs 0.01 to 0.1 µM; to `CC1(O)CCN(C(=O)c2ccc(Nc3cc(-c4c(F)cccc4F)nc4c3C(=O)NC4)cc2)CC1` [Compound I-275, 2-(2,6-difluorophenyl)-4-((4-(4-hydroxy-4-methylpiperidine-1-carbonyl)phenyl)amino)-6,7-dihydro-5H-pyrrolo[3,4-b]pyridin-5-one], 0.01 to 0.1 µM; to `O=C1NCc2nc(-c3c(F)cccc3F)cc(Nc3ccc(N4C5COCC4C5)cn3)c21` [Compound I-279, 4-((5-(3-oxa-6-azabicyclo[3.1.1]heptan-6-yl)pyridin-2-yl)amino)-2-(2,6-difluorophenyl)-6,7-dihydro-5H-pyrrolo[3,4-b]pyridin-5-one], 0.01 to 0.1 µM. Turning to `CC1(C)CCCC(=O)N1c1ccc(Nc2cc(-c3c(F)cccc3F)nc3c2C(=O)NC3)nc1` [Compound I-284, 2-(2,6-difluorophenyl)-4-((5-(2,2-dimethyl-6-oxopiperidin-1-yl)pyridin-2-yl)amino)-6,7-dihydro-5H-pyrrolo[3,4-b]pyridin-5-one], the inhibition constant (Ki) lay within 0.01 to 0.1 µM. For `CCNC(=O)c1cnc(Nc2cc(-c3c(F)cccc3F)nc3c2C(=O)NC3)cc1F` [Compound I-286, 6-((2-(2,6-difluorophenyl)-5-oxo-6,7-dihydro-5H-pyrrolo[3,4-b]pyridin-4-yl)amino)-N-ethyl-4-fluoronicotinamide], the Ki lay in the range of 0.1 to 1 µM.
